As a reminder, the IC50 is the point on the concentration scale where inhibition reaches its midpoint. A higher IC50 goes with weaker potency.

Structures are written as SMILES.

Results on 66 compounds are retold here after patent US9624228B2, “Inhibitors of ERK and methods of use” (KURA ONCOLOGY, INC., priority 2013, dated 2017).

The target of the first assay is ERK2 enzyme (Homo sapiens (Human), UniProt P28482). As to the kind of experiment: Inhibition assay of ERK (Z'-LYTE kinase assay, Ser/Thr 3 peptide substrate). Type of assay: biochemical. Conditions: In vitro ERK2 enzyme, 100 μM ATP.
ERK2 enzyme, sequence (P28482 whole entry): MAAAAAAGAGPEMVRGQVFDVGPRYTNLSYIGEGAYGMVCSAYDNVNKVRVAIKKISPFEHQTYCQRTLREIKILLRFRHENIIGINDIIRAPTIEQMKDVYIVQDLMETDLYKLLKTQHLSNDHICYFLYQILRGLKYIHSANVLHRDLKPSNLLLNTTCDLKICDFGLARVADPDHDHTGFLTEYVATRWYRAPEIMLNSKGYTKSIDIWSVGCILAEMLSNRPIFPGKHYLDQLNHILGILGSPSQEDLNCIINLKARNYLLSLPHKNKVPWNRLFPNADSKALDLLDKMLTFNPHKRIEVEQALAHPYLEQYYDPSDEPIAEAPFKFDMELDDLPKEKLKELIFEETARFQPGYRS
Take `Cc1cc(-c2n[nH]c3cc4c(cc23)CN([C@@H]2CCCOC2)C(=O)N4)ccn1` [Compound 49]: the IC50 is less than 50 nM.
Compound `Cc1cc(-c2n[nH]c3cc4c(cc23)CN([C@@H]2CCCN(CC(F)(F)F)C2)C(=O)N4)ccn1` [Compound 193] registered an IC50 of less than 50 nM.
On the same count and under the same terms, the figure for `COc1ncc(-c2n[nH]c3cc4c(cc23)CN([C@H](C)c2cccc(C#N)c2)C(=O)N4)cn1` [Compound 100] is less than 50 nM; for `COc1ncc(-c2n[nH]c3cc4c(cc23)CN([C@@H]2CCCN(Cc3ccccc3F)C2)C(=O)N4)cn1` [Compound 101] it is less than 50 nM; for `Cc1cccc(-c2n[nH]c3cc4c(cc23)CN(Cc2cccc(Cl)c2)C(=O)N4)n1` [Compound 108] it is 50 to 250 nM.
The compound `Cc1cc(-c2n[nH]c3cc4c(cc23)CN([C@@H]2CCCN(CC3CC3)C2)C(=O)N4)ccn1` [Compound 62] gave an IC50 of 50 to 250 nM.
Take `Cc1cc(-c2n[nH]c3cc4c(cc23)CN([C@@H]2CCCNC2)C(=O)N4)ccn1` [Compound 32]: the IC50 was 50 to 250 nM.
In turn, `[2H]C([2H])(c1ccccc1)N1CCC[C@@H](N2Cc3cc4c(-c5ccnc(C)c5)n[nH]c4cc3NC2=O)C1` [Compound 148] yielded an IC50 of less than 50 nM.
Turning to `COCCN1Cc2cc3c(-c4ccnc(C)c4)n[nH]c3cc2NC1=O` [Compound 52], the IC50 was less than 50 nM.
On the same count and under the same terms, to `COc1ccc(-c2n[nH]c3cc4c(cc23)CN(Cc2ccc(F)cc2F)C(=O)N4)cn1` [Compound 87] belongs less than 50 nM; to `O=C1Nc2cc3[nH]nc(-c4ccnnc4)c3cc2CN1[C@@H]1CCCN(Cc2c(F)cccc2F)C1` [Compound 122], less than 50 nM.
On the same count and under the same terms, to `Cc1cc(-c2n[nH]c3cc4c(cc23)CN([C@@H]2CCCN(Cc3cncnc3)C2)C(=O)N4)ccn1` [Compound 166] belongs less than 50 nM; to `Cc1cc(-c2n[nH]c3cc4c(cc23)CN([C@@H]2CCCN(Cc3ccc(F)cn3)C2)C(=O)N4)ccn1` [Compound 132], less than 50 nM.
On the same count and under the same terms, the figure for `Cc1cc(-c2n[nH]c3cc4c(cc23)CN([C@@H]2CCN(Cc3ccccc3)C2)C(=O)N4)ccn1` [Compound 146] is less than 50 nM; for `Cc1cc(-c2n[nH]c3cc4c(cc23)CN([C@@H]2CCCN(Cc3cnn(C)c3)C2)C(=O)N4)ccn1` [Compound 133] it is less than 50 nM.
With `Cc1cc(-c2n[nH]c3cc4c(cc23)CN([C@@H]2CCCN(C(C)c3ccc(F)cc3)C2)C(=O)N4)ccn1` (stereo partly drawn) [Compound 179], the IC50 is 50 to 250 nM.
Turning to `COCCOCCN1Cc2cc3c(-c4ccnc(C)c4)n[nH]c3cc2NC1=O` [Compound 45], the IC50 was less than 50 nM.
`CCC(=O)NCCN1Cc2cc3c(-c4cnc(OC)nc4)n[nH]c3cc2NC1=O` [Compound 106]: the IC50 fell in the range of 50 to 250 nM.
On to `Cc1cc(-c2n[nH]c3cc4c(cc23)CN(CCN2CCOCC2)C(=O)N4)ccn1` [Compound 51], for which the IC50 is less than 50 nM.
Still for that read-out and setting: to `Cc1cc(-c2n[nH]c3cc4c(cc23)CN(Cc2ccc(F)cc2F)C(=O)N4)ccn1` [Compound 11] belongs less than 50 nM; to `O=C1Nc2cc3[nH]nc(-c4ccnnc4)c3cc2CN1[C@@H]1CCCN(Cc2ccccc2)C1` [Compound 120], less than 50 nM.
In turn, `Cc1cc(-c2n[nH]c3cc4c(cc23)CN([C@@H]2CCCN(Cc3cccnc3C(F)(F)F)C2)C(=O)N4)ccn1` [Compound 161] displayed an IC50 of less than 50 nM.
On to `Cc1cc(-c2n[nH]c3cc4c(cc23)CN([C@@H]2CCCN(Cc3ccc(F)cc3)C2)C(=O)N4)ccn1` [Compound 151], for which the IC50 is less than 50 nM.
In turn, `O=C1Nc2cc3[nH]nc(-c4cn[nH]c4)c3cc2CN1Cc1cccc(Cl)c1` [Compound 60] came in with an IC50 of less than 50 nM.
Consider `Cc1cc(-c2n[nH]c3cc4c(cc23)CN(Cc2ccc(C(F)(F)F)cc2)C(=O)N4)ccn1` [Compound 12], for which the IC50 was 50 to 250 nM.
With `Cc1cc(-c2n[nH]c3cc4c(cc23)CN(Cc2ccc(F)c(Cl)c2)C(=O)N4)ccn1` [Compound 8], the IC50 is less than 50 nM.
Same read-out and setting: the figure for `Cc1cc(-c2n[nH]c3cc4c(cc23)CN([C@@H]2CCCN(Cc3cccc(F)c3)C2)C(=O)N4)ccn1` [Compound 184] is less than 50 nM.
In turn, `COc1ncc(-c2n[nH]c3cc4c(cc23)CN([C@H](C)c2cccc(Cl)c2)C(=O)N4)cn1` [Compound 71] had an IC50 of less than 50 nM.
The same measure, in the same setting: to `Cc1cc(-c2n[nH]c3cc4c(cc23)CN([C@@H]2CCN(CCc3ccccc3)C2)C(=O)N4)ccn1` [Compound 153] belongs less than 50 nM; to `Cc1cc(-c2n[nH]c3cc4c(cc23)CN(Cc2cccc(C#N)c2)C(=O)N4)ccn1` [Compound 55], less than 50 nM; to `Cc1cc(-c2n[nH]c3cc4c(cc23)CN([C@@H]2CCCN(Cc3cc(F)ccc3F)C2)C(=O)N4)ccn1` [Compound 187], less than 50 nM.
`COc1ccc(-c2n[nH]c3cc4c(cc23)CN(CCc2cccc(Cl)c2)C(=O)N4)cn1` [Compound 85] yielded an IC50 of less than 50 nM.
For the compound `Cc1cc(-c2n[nH]c3cc4c(cc23)CN([C@@H]2CCCN(Cc3ccccn3)C2)C(=O)N4)ccn1` [Compound 171], the IC50 lay within 50 to 250 nM.
Regarding `COc1ncc(-c2n[nH]c3cc4c(cc23)CN(CC2CCNCC2)C(=O)N4)cn1` [Compound 81], the IC50 is 250 to 1000 nM.
`COc1ncc(-c2n[nH]c3cc4c(cc23)CN(Cc2ccc(F)cc2F)C(=O)N4)cn1` [Compound 99] came in with an IC50 of less than 50 nM.
`Cc1cc(-c2n[nH]c3cc4c(cc23)CN([C@H](C)c2ccc(C#N)cc2)C(=O)N4)ccn1` [Compound 23] returned an IC50 of less than 50 nM.
Still for that read-out and setting: to `Cc1cc(-c2n[nH]c3cc4c(cc23)CN([C@@H](C)c2cccc(Cl)c2)C(=O)N4)ccn1` [Compound 28] belongs 50 to 250 nM.
On to `Cc1cc(-c2n[nH]c3cc4c(cc23)CN(Cc2ccc(F)c(F)c2)C(=O)N4)ccn1` [Compound 13], for which the IC50 was less than 50 nM.
In turn, `Cc1cc(-c2n[nH]c3cc4c(cc23)CN([C@@H]2CCCN(Cc3ccc(F)c(Cl)c3)C2)C(=O)N4)ccn1` [Compound 134] had an IC50 of less than 50 nM.
With `Cc1cc(-c2n[nH]c3cc4c(cc23)CN(C(C)CC(C)C)C(=O)N4)ccn1` (stereo not drawn) [Compound 53], the half-maximal inhibitory concentration (IC50) is less than 50 nM.
Regarding `Cc1cc(-c2n[nH]c3cc4c(cc23)CN([C@@H]2CCCN(Cc3ccccc3)C2)C(=O)N4)ccn1` [Compound 63], the IC50 is less than 50 nM.
Same read-out and setting: to `Cc1cc(-c2n[nH]c3cc4c(cc23)CN([C@@H]2CCCN(Cc3sc(C)nc3C)C2)C(=O)N4)ccn1` [Compound 195] belongs 50 to 250 nM; to `COc1ncc(-c2n[nH]c3cc4c(cc23)CN(Cc2cccc(C#N)c2)C(=O)N4)cn1` [Compound 125], less than 50 nM.
In turn, `Cc1cc(-c2n[nH]c3cc4c(cc23)CN(Cc2nccs2)C(=O)N4)ccn1` [Compound 56] displayed an IC50 of less than 50 nM.
Compound `Cn1cc(-c2n[nH]c3cc4c(cc23)CN(Cc2ccc(F)c(Cl)c2)C(=O)N4)cn1` [Compound 31] returned an IC50 of less than 50 nM.

Staying with this assay, now noted: In vitro, ERK2 enzyme 0.47 ng/μL, 100 μM ATP.
As for `Cc1cc(-c2n[nH]c3cc4c(cc23)CN(C(C)c2nc(C)c(C)s2)C(=O)N4)ccn1` (stereo not drawn) [Compound 286], the IC50 is less than 50 nM.
In the case of `Cc1cc(-c2n[nH]c3cc4c(cc23)CN(C2CN(Cc3cc(F)cc(F)c3)CC(F)(F)C2)C(=O)N4)ccn1` (stereo not drawn) [Compound 202], the IC50 lay within 250 to 1000 nM.
With `COc1cc(-c2n[nH]c3cc4c(cc23)CN([C@@H]2CN(CC(F)(F)F)C[C@H]2c2ccccc2)C(=O)N4)ccn1` [Compound 375], the IC50 fell in the range of 50 to 250 nM.
`C[C@H](c1ccccc1)c1cc2cc3c(NC4CCOCC4)n[nH]c3cc2[nH]c1=O` [Compound 357] displayed an IC50 of less than 50 nM.
The compound `COc1ccc(-c2n[nH]c3cc4c(cc23)CN([C@@H]2CN(C)C[C@H]2c2ccccc2)C(=O)N4)cn1` (mixture of isomers) [Compound 353] showed an IC50 of less than 50 nM.
Regarding `Cc1cc(-c2n[nH]c3cc4c(cc23)CN([C@@H]2CCCN(CC(=O)C(C)(C)C)C2)C(=O)N4)ccn1` [Compound 203], the IC50 is less than 50 nM.
Compound `CC(c1ccccc1)c1cc2cc3c(-c4ccnc(N5CCOCC5)c4)n[nH]c3cc2[nH]c1=O` (stereo not drawn) [Compound 325] showed an IC50 of less than 50 nM.
`Cc1cc(-c2n[nH]c3cc4c(cc23)CN(CC2CC2)C(=O)N4)ccn1` [Compound 258] yielded an IC50 of less than 50 nM.
Take `Cc1cc(-c2n[nH]c3cc4c(cc23)CN(CC2CCOCC2)C(=O)N4)cc(C)n1` [Compound 250]: the IC50 was less than 50 nM.
The compound `Cc1cc(-c2n[nH]c3cc4c(cc23)CN(CCC2CC2)C(=O)N4)ccn1` [Compound 283] returned an IC50 of 50 to 250 nM.
The compound `COc1ncc(-c2n[nH]c3cc4c(cc23)CN([C@@H]2CN(C)C[C@H]2c2ccccc2)C(=O)N4)cn1` (mixture of isomers) [Compound 355] displayed an IC50 of less than 50 nM.
For the compound `CC(c1ccccc1)c1cc2cc3c(-c4ccc(N5CCOCC5)nc4)n[nH]c3cc2[nH]c1=O` (stereo not drawn) [Compound 324], the IC50 is 50 to 250 nM.
Regarding `Cc1cc(-c2n[nH]c3cc4c(cc23)CN([C@@H]2CCCN(c3ccc(F)cn3)C2)C(=O)N4)ccn1` [Compound 199], the IC50 is less than 50 nM.
`COc1ccc(-c2n[nH]c3cc4[nH]c(=O)c(C5CCCN(Cc6ccccc6)C5)cc4cc23)cn1` (stereo not drawn) [Compound 367] returned an IC50 of 50 to 250 nM.
Same read-out and setting: to `Cc1cc(-c2n[nH]c3cc4[nH]c(=O)c(C5CCCN(Cc6cccs6)C5)cc4cc23)ccn1` (stereo not drawn) [Compound 378] belongs 50 to 250 nM; to `COc1cc(-c2n[nH]c3cc4[nH]c(=O)c(C5CCCN(Cc6ccccc6)C5)cc4cc23)ccn1` (stereo not drawn) [Compound 370], less than 50 nM.
Turning to `CC(c1ccccc1)c1cc2cc3c(-c4ccnc(N5CCN(C)CC5)c4)n[nH]c3cc2[nH]c1=O` (stereo not drawn) [Compound 318], the IC50 is less than 50 nM.
Compound `Cc1ccc(-c2n[nH]c3cc4c(cc23)CN([C@@H]2CCN(CC(F)(F)F)C2)C(=O)N4)cn1` [Compound 274] returned an IC50 of less than 50 nM.
Compound `Cc1cc(-c2n[nH]c3cc4c(cc23)CN([C@@H]2CCCN(CC(=O)C(C)C)C2)C(=O)N4)ccn1` [Compound 209] showed an IC50 of less than 50 nM.
As to `Cc1cc(-c2n[nH]c3cc4c(cc23)CN([C@@H]2CCN(C)C2)C(=O)N4)ccn1` [Compound 255], the IC50 was less than 50 nM.
On to `Cc1ncc(-c2n[nH]c3cc4c(cc23)CN([C@@H]2CCCN(Cc3ccc(F)cc3F)C2)C(=O)N4)cn1` [Compound 293], for which the IC50 was less than 50 nM.
